Assay results published in patent US9999619B2, “Piperidin-4-yl azetidine derivatives as JAK1 inhibitors” (Incyte Corporation, priority 2010, dated 2018).
Counter-ions that a name gives are not always drawn.

Tests used:
Assay type in all cases: biochemical
[1] = molecular target: human JAK1 (a.a. 837-1142) (Homo sapiens, UniProt P23458); test: In vitro JAK kinase assay (HTRF, phosphorylation of a biotinylated peptide), JAK1; details: measured at 1 mM ATP
Procedure, shortened: (§1)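 N-terminal His-tagged catalytic domains, baculovirus-expressed in insect cells, phosphorylated a biotinylated peptide for 1 hr at room temperature. EDTA stop was followed by SA-APC and Eu-Py20 antibody for 40 minutes, with phosphopeptide read by HTRF.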

[2] = molecular target: human JAK1 (a.a. 837-1142); test: as above; details: ratio of JAK2 IC50 to JAK1 IC50, measured at 1 mM ATP
Procedure, shortened: as §1

Jak2 (a.a. 828-1132) = Jak2 (a.a. 828-1132) (Homo sapiens (Human), UniProt O60674); test: In vitro JAK kinase assay (HTRF, phosphorylation of a biotinylated peptide), JAK2; details: measured at 1 mM ATP
Jak2 (a.a. 828-1132), sequence (O60674 828-1132): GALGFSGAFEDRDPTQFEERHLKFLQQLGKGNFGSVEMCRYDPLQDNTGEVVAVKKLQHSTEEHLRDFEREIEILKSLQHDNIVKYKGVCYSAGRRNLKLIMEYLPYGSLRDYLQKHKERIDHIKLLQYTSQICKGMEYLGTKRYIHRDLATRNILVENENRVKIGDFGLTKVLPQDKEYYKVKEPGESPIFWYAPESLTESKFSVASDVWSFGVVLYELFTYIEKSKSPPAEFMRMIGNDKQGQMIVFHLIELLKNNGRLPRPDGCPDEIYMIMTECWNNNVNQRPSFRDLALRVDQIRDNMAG
Procedure, shortened: as §1

Compound | IC50 [1] [nM] | IC50 Ratio JAK2/JAK1 [2] | IC50 (Jak2 (a.a. 828-1132)) [nM]
Cc1nc(C(F)(F)F)ccc1NC(=O)N1CCC(N2CC(CC#N)(n3cc(-c4ncnc5[nH]ccc45)cn3)C2)CC1 [Example 205, 4-{3-(cyanomethyl)-3-[4-(7H-pyrrolo[2,3-d]pyrimidin-4-yl)-1H-pyrazol-1-yl]azetidin-1-yl}-N-[2-methyl-6-(trifluoromethyl)pyridin-3-yl]piperidine-1-carboxamide] | 5 to 20 | 4.4 | 10 to 50
N#CCC1(n2cc(-c3ncnc4[nH]ccc34)cn2)CN(C2CCN(C(=O)OCc3ccccc3)CC2)C1 [Example 389, benzyl 4-{3-(cyanomethyl)-3-[4-(7H-pyrrolo[2,3-d]pyrimidin-4-yl)-1H-pyrazol-1-yl]azetidin-1-yl}piperidine-1-carboxylate] | ≤ 5 | 6.5 | 10 to 50
N#CCC1(n2cc(-c3ncnc4[nH]ccc34)cn2)CN(C2CCN(C(=O)c3cc(F)cc(F)c3)CC2)C1 [Example 3, {1-[1-(3,5-difluorobenzoyl)piperidin-4-yl]-3-[4-(7H-pyrrolo[2,3-d]pyrimidin-4-yl)-1H-pyrazol-1-yl]azetidin-3-yl}acetonitrile] | ≤ 5 | 11.0 | 10 to 50
N#CCC1(n2ccc(-c3ncnc4[nH]ccc34)c2)CN(C2CCN(C(=O)c3cccc(F)c3F)CC2)C1 [Example 276, {1-[1-(2,3-difluorobenzoyl)piperidin-4-yl]-3-[3-(7H-pyrrolo[2,3-d]pyrimidin-4-yl)-1H-pyrrol-1-yl]azetidin-3-yl}acetonitrile] | ≤ 5 | 4.0 | ≤ 10
N#CCC1(n2cc(-c3ccnc4[nH]ccc34)cn2)CN(C2CCN(C(=O)Nc3ccc(F)cc3F)CC2)C1 [Example 304, 4-{3-(cyanomethyl)-3-{4-(1H-pyrrolo[2,3-b]pyridin-4-yl)-1H-pyrazol-1-yl]azetidin-1-yl}-N-(2,4-difluorophenyl)piperidine-1-carboxamide] | ≤ 5 | 10.3 | 10 to 50
N#CCC1(n2cc(-c3ncnc4[nH]ccc34)cn2)CN(C2CCN(C(=O)c3ccc(-c4ccc5ncccc5c4)c(F)c3)CC2)C1 [Example 2, {1-[1-(3-Fluoro-4-quinolin-6-ylbenzoyl)piperidin-4-yl]-3-[4-(7H-pyrrolo[2,3-d]pyrimidin-4-yl)-1H-pyrazol-1-yl]azetidin-3-yl}acetonitrile] | ≤ 5 | 12.3 | 50 to 100
N#CCC1(n2cc(-c3ncnc4[nH]ccc34)cn2)CN(C2CCN(C(=O)c3ccccc3C#N)CC2)C1 [Example 10, 2-[(4-{3-(cyanomethyl)-3-[4-(7H-pyrrolo[2,3-d]pyrimidin-4-yl)-1H-pyrazol-1-yl]azetidin-1-yl}piperidin-1-yl)carbonyl]benzonitrile] | 5 to 20 | 4.4 | 10 to 50
COc1ncccc1NC(=O)N1CCC(N2CC(CC#N)(n3ccc(-c4ncnc5[nH]ccc45)c3)C2)CC1 [Example 284, 4-{3-(cyanomethyl)-3-[3-(7H-pyrrolo[2,3-d]pyrimidin-4-yl)-1H-pyrrol-1-yl]azetidin-1-yl}-N-(2-methoxypyridin-3-yl)piperidine-1-carboxamide] | ≤ 5 | 5.8 | 10 to 50
N#CCC1(n2cc(-c3c(F)cnc4[nH]ccc34)cn2)CN(C2CCN(C(=O)c3cc(C(F)(F)F)ncc3Cl)CC2)C1 [Example 326, {1-{1-[5-chloro-2-(trifluoromethyl)isonicotinoyl]piperidin-4-yl}-3-[4-(5-fluoro-1H-pyrrolo[2,3-b]pyridin-4-yl)-1H-pyrazol-1-yl]azetidin-3-yl}acetonitrile] | 5 to 20 | 1.7 | 10 to 50
CC1(COC(=O)N2CCC(N3CC(CC#N)(n4cc(-c5ncnc6[nH]ccc56)cn4)C3)CC2)CC1 [Example 392, (1-methylcyclopropyl)methyl 4-{3-(cyanomethyl)-3-[4-(7H-pyrrolo[2,3-d]pyrimidin-4-yl)-1H-pyrazol-1-yl]azetidin-1-yl}piperidine-1-carboxylate] | 5 to 20 | 5.6 | 10 to 50
Cc1ncccc1NC(=O)N1CCC(N2CC(CC#N)(n3cc(-c4ncnc5[nH]ccc45)cn3)C2)CC1 [Example 198, 4-{3-(cyanomethyl)-3-[4-(7H-pyrrolo[2,3-d]pyrimidin-4-yl)-1H-pyrazol-1-yl]azetidin-1-yl}-N-(2-methylpyridin-3-yl)piperidine-1-carboxamide] | ≤ 5 | 4.4 | 10 to 50
N#CCC1(n2cc(-c3ncnc4[nH]ccc34)cn2)CN(C2CCN(Cc3cccc(Cl)c3Cl)CC2)C1 [Example 219, {1-[1-(2,3-dichlorobenzyl)piperidin-4-yl]-3-[4-(7H-pyrrolo[2,3-d]pyrimidin-4-yl)-1H-pyrazol-1-yl]azetidin-3-yl}acetonitrile] | 5 to 20 | 2.4 | 10 to 50
N#CCC1(n2cc(-c3ncnc4[nH]ccc34)cn2)CN(C2CCN(Cc3ccc(C#N)c(F)c3)CC2)C1 [Example 229, 4-[(4-{3-(cyanomethyl)-3-[4-(7H-pyrrolo[2,3-d]pyrimidin-4-yl)-1H-pyrazol-1-yl]azetidin-1-yl}piperidin-1-yl)methyl]-2-fluorobenzonitrile] | 5 to 20 | 6.4 | 50 to 100
Cc1ccc(Cl)cc1NC(=O)N1CCC(N2CC(CC#N)(n3cc(-c4ncnc5[nH]ccc45)cn3)C2)CC1 [Example 168, N-(5-chloro-2-methylphenyl)-4-{3-(cyanomethyl)-3-[4-(7H-pyrrolo[2,3-d]pyrimidin-4-yl)-1H-pyrazol-1-yl]azetidin-1-yl}piperidine-1-carboxamide] | ≤ 5 | 2.6 | ≤ 10
N#CCC1(n2cc(-c3ncnc4[nH]ccc34)cn2)CN(C2CCN(C(=O)Nc3cccc(Cl)c3)CC2)C1 [Example 183, N-(3-chlorophenyl)-4-{3-(cyanomethyl)-3-[4-(7H-pyrrolo[2,3-d]pyrimidin-4-yl)-1H-pyrazol-1-yl]azetidin-1-yl}piperidine-1-carboxamide] | ≤ 5 | 3.8 | ≤ 10
N#CCC1(n2ccc(-c3ncnc4[nH]ccc34)c2)CN(C2CCN(C(=O)c3cc(F)ccc3F)CC2)C1 [Example 278, {1-[1-(2,5-difluorobenzoyl)piperidin-4-yl]-3-[3-(7H-pyrrolo[2,3-d]pyrimidin-4-yl)-1H-pyrrol-1-yl]azetidin-3-yl}acetonitrile] | ≤ 5 | 5.6 | ≤ 10
N#CCC1(n2cc(-c3ncnc4[nH]ccc34)cn2)CN(C2CC3CCC(C2)N3C(=O)c2ccc(C(F)(F)F)nc2)C1 (stereo not drawn) [Example 143, [3-[4-(7H-pyrrolo[2,3-d]pyrimidin-4-yl)-1H-pyrazol-1-yl]-1-(8-{[6-(trifluoromethyl)pyridin-3-yl]carbonyl}-8-azabicyclo[3.2.1]oct-3-yl)azetidin-3-yl]acetonitrile] | 5 to 20 | 3.5 | 10 to 50
N#CCC1(n2cc(-c3ncnc4[nH]ccc34)cn2)CN(C2CCN(C(=O)c3cc(CN4CCC(F)(F)C4)nc(C(F)(F)F)n3)CC2)C1 [Example 379, {1-(1-{[6-[(3,3-difluoropyrrolidin-1-yl)methyl]-2-(trifluoromethyl)pyrimidin-4-yl]carbonyl}piperidin-4-yl)-3-[4-(7H-pyrrolo[2,3-d]pyrimidin-4-yl)-1H-pyrazol-1-yl]azetidin-3-yl}acetonitrile (trifluoroacetate salt: 4 TFA)] | ≤ 5 | 36.9 | 50 to 100
N#CCC1(n2cc(-c3ncnc4[nH]ccc34)cn2)CN(C2CCN(C(=O)Nc3ccccc3OC(F)(F)F)CC2)C1 [Example 158, 4-{3-(cyanomethyl)-3-[4-(7H-pyrrolo[2,3-d]pyrimidin-4-yl)-1H-pyrazol-1-yl]azetidin-1-yl}-N-[2-(trifluoromethoxy)phenyl]piperidine-1-carboxamide] | ≤ 5 | 12.0 | 10 to 50
CCCOC(=O)N1CCC(N2CC(CC#N)(n3cc(-c4ncnc5[nH]ccc45)cn3)C2)CC1 [Example 386, Propyl 4-{3-(cyanomethyl)-3-[4-(7H-pyrrolo[2,3-d]pyrimidin-4-yl)-1H-pyrazol-1-yl]azetidin-1-yl}piperidine-1-carboxylate] | ≤ 5 | 7.7 | 10 to 50
N#CCC1(n2cc(-c3ncnc4[nH]ccc34)cn2)CN(C2CCN(C(=O)c3cc(CN4CCC4)nc(C(F)(F)F)n3)CC2)C1 [Example 372, {1-(1-{[6-(azetidin-1-ylmethyl)-2-(trifluoromethyl)pyrimidin-4-yl]carbonyl}piperidin-4-yl)-3-[4-(7H-pyrrolo[2,3-d]pyrimidin-4-yl)-1H-pyrazol-1-yl]azetidin-3-yl}acetonitrile] | ≤ 5 | 67.3 | 10 to 50
N#CCC1(n2cc(-c3ncnc4[nH]ccc34)cn2)CN(C2CCN(C(=O)c3ccc(-c4cccnc4)c(F)c3)CC2)C1 [Example 123, {1-[1-(3-fluoro-4-pyridin-3-ylbenzoyl)piperidin-4-yl]-3-[4-(7H-pyrrolo[2,3-d]pyrimidin-4-yl)-1H-pyrazol-1-yl]azetidin-3-yl}acetonitrile] | ≤ 5 | 3.8 | ≤ 10
N#CCC1(n2cc(-c3ncnc4[nH]ccc34)cn2)CN(C2CCN(Cc3ccc(-c4conn4)cc3)CC2)C1 [Example 221, {1-{1-[4-(1,2,3-oxadiazol-4-yl)benzyl]piperidin-4-yl}-3-[4-(7H-pyrrolo[2,3-d]pyrimidin-4-yl)-1H-pyrazol-1-yl]azetidin-3-yl}acetonitrile] | 5 to 20 | 1.3 | 10 to 50
